Usually GI50 stands for the concentration that inhibits growth by half.

Molecules are shown by their SMILES. “And” between values parts separate entries of the source, which are not always exact repeats. Identical values can stand only once. Like-named read-outs stand apart in the source and are kept apart here.

Common to all, as to format: cell-based
Assay [1] deals with Colon HCT116 (MMR mutated). Description: MTT assay for 7-day toxicity assay. The note with it: read-out: GI50. On the procedure: (§1) The cell culture techniques were carried out in a Class II microbiological safety cabinet which was swabbed with 70% IMS in distilled water before each use. Glioma cells were routinely cultured in Costar tissue culture flasks in RPMI 1640 liquid medium (containing 0.3 g/L L-glutamine and 2 g/L sodium bicarbonate) supplemented with 10% heat inactivated FBS (55-59° C.) for 1 hour to denature complement proteins which would otherwise evoke a cellular immune response resulting in cell lysis, 1% non-essential amino acids, 50 μg/mL gentamicin and 400 μg/mL G418 (vector selected reagent). Colorectal and melanoma cells were maintained in RPMI 1640 supplemented with 10% FBS. MRC-5 cells were cultured in EMEM. Cells were grown in a humidified incubator containing 5% CO2 at 37° C. Cells were sub-cultured when growth exceeded approximately 80% confluence, normally twice weekly. The medium was aspirated from the flask and approximately 0.8 mL trypsin-EDTA 1× solution added. The cells were re-incubated at 37° C. until they visibly detached from the flask. The cell suspension was then re-suspended in 5 mL medium and 0.5-1 mL of the cell suspension was transferred to a new flask (25 cm^2) with 7 mL culture medium. The cells were further incubated at 37° C. incubator. Cells were disposed after passage nearly 30 times in order to minimize phenotypic drift. New batches of cells were taken from liquid nitrogen storage by thawing rapidly (37° C. water bath) and re-suspension in a 25 cm^2 flask with 10 mL of culture medium. Two passages were allowed to resume normal growth. For long-term maintenance, viable cells at 60-80% confluence were detached by minimum amount of trypsin/EDTA and re-suspended in sterile filtered freezing medium (95% FBS, 5% DMSO), transferred to sterile cryogenic vials, and frozen overnight at −20° C. followed by −80° C. for 1-2 days and stored in liquid nitrogen for long term storage.
(§2) Most test compounds, including temozolomide, were prepared as stock solution (100 mM) in DMSO and stored at −20° C. for not more than 6 months.
(§3) This assay was first described in Mosmann, T., 1983, “Rapid colorimetric assay for cellular growth and survival: Application to proliferation and cytotoxicity assays”, Journal of Immunological Methods, Vol. 65, Nos. 1-2, pp. 55-63.
(§4) Glioma cell lines, SNB19 and U373, both MGMT transfected (i.e., SNB19M and U373M) and vector controls (i.e., SNB19V and U373V); colorectal carcinoma cell lines, HCT116, HT29, and DLD1; melanoma cell line, SKMEL-28; breast cell line, MCF-7; and normal human fetal lung fibroblast cell line, MRC-5; were harvested at 60-80% confluence—during the logarithmic phase of growth.
(§5) Following harvesting, cells in suspension were gently syringed through a 23 gauge needle to obtain a near-single cell suspension. The desired cell seeding densities were used and added into 96-well plates in 180 μL culture medium if only one test compound was to be added, or 160 μL if two test compounds were to be added in combination, which were allowed to attach at 37° C. (5% CO2) overnight. For the 7 day assay, the cell seeding density for different cell lines was as follows: SNB19V, SNB19M: 650 cells/well; U373V, U373M: 650 cells/well; SNB19VR, U373VR: 650 cells/well; HCT116, DLD-1, SKMEL-28, MRC-5, MCF-7: 400 cells/well.
(§6) The two peripheral lanes were used as blank wells (cell free) and filled with 200 μL of medium in order to minimise medium evaporation from the plate. A separate time zero (T0) plate was set up alongside other plates. Serial dilutions in tissue culture medium of a 100 mM stock of test compound in DMSO were prepared immediately before each assay to ten times the final concentrations required, and then 20 μL was added to each well (200 μL total media per well) to achieve final concentrations of 0.5 μM, 1 μM, 5 μM, 10 μM, 50 μM, 100 μM, 500 μM, and 1000 μM. A minimum of four wells received the same test compound concentration. […]
(Tetrazolium assays rely on reduction of a dye to a coloured formazan, in cell work by metabolically active cells.)

The subject of assay [2] is Melanoma SKMEL-28 (MMR proficient). Description: MTT assay for 7-day toxicity assay. The note with it: read-out: GI50. How it is done: as §1, §2, §3, §4, §5, §6
For assay [3], the system named is Normal Human Fetal Lung Fibroblast MRC-5. The experiment in a line: MTT assay for 7-day toxicity assay. The note with it: read-out: GI50. On the procedure:
as §1, §2, §3, §4, §5, §6

Assay [4] has as its system Colon HT29 (MMR proficient). Description: MTT assay for 7-day toxicity assay. The following applies: read-out: GI50. How it is done:
as §1, §2, §3, §4, §5, §6

Assay [5] relates to Colon DLD1. Description: MTT assay for 7-day toxicity assay. The following applies: read-out: GI50. On the procedure:
as §1, §2, §3, §4, §5, §6

Assay [6] relates to Breast MCF-7 (MMR proficient). The experiment in a line: MTT assay for 7-day toxicity assay. The note with it: Homo sapiens, MCF7; Breast MCF-7 (MMR proficient); read-out: GI50. On the procedure:
as §1, §2, §3, §4, §5, §6

Assay [7] deals with Glioma SNB19V (MGMT−). Description: Clonogenic survival assay (Table 14, assay not named there). On the procedure: (§7) A clonogenic assay, which measures tumour cell survival and subsequent proliferative ability following drug exposure was used to verify that the cells remaining metabolically active following treatment with TMZ and new derivatives. See, e.g., Brown, J. M., et al., 1999, “Apoptosis, p53, and tumor cell sensitivity to anticancer agents”, Cancer Research, Vol. 59, No. 7, pp. 1391-1399.
(§8) Exponentially growing cells were seeded in triplicate at a density of 200 cells/well in 6 well plate and allowed to attach overnight and then exposed to increasing concentration of TMZ and test compounds (0, 5, 10, 100, 500, 1000 μM). After 18 hours, the plates were changed to drug free media and left to grow in the 37° C., 5% CO2 incubator. After 14 days, the plates were rinsed in PBS and fixed with pre-chilled methanol in room temperature for 20 minutes, and then stained with 0.5% methylene blue in 1:1 methanol/H2O (v/v) for 10 minutes and thoroughly washed in distilled water and air dried. Cell colonies containing >30 cells were counted. Growth inhibition by TMZ and test compounds was estimated by dividing the mean number of colonies under drug treatment by the mean number of colonies without drug treatment.

The test system of assay [8] is Glioma SNB19M (MGMT+). Described as above. How it is done:
as §7, §8

In assay [9] the test system is Glioma U373VR (MGMT low) (TMZ resistant). Description: MTT assay for 7-day toxicity assay. The note with it: read-out: GI50. On the procedure: as §1, §2, §3, §4, §5, §6
The mark [10] stands for this setting: Homo sapiens, HCT-116, Colon HCT116 (MMR mutated).
Where [11] appears, read: Homo sapiens, SK-MEL-28, Melanoma SKMEL-28 (MMR proficient).
Setting [12] is: Melanoma SKMEL-28 (MMR proficient).
[13] abbreviates: Homo sapiens, MRC5, Normal Human Fetal Lung Fibroblast MRC-5.
Where [14] appears, read: Normal Human Fetal Lung Fibroblast MRC-5.
The mark [15] stands for this setting: Homo sapiens, HT-29, Colon HT29 (MMR proficient).
The mark [16] stands for this setting: Homo sapiens, DLD-1, Colon DLD1.
[17] abbreviates: Colon HCT116 (MMR mutated), 7-day MTT, single determinations.
[18] abbreviates: Homo sapiens, HCT-116, 168 h, Colon HCT116 (MMR mutated), 7-day MTT, single determinations.
Setting [19] is: 168 h, Glioma U373VR (MGMT low, TMZ resistant), 7-day MTT, single determinations.
Where [20] appears, read: Homo sapiens, MRC5, 168 h, Normal Human Fetal Lung Fibroblast MRC-5, 7-day MTT, single determinations.
Where [21] appears, read: Homo sapiens, DLD-1, 168 h, Colon DLD1, 7-day MTT, single determinations.
Setting [22] is: Homo sapiens, SK-MEL-28, 168 h, Melanoma SKMEL-28 (MMR proficient), 7-day MTT, single determinations.
The mark [23] stands for this setting: Normal Human Fetal Lung Fibroblast MRC-5, 7-day MTT, single determinations.

With `C[Si](C)(C)CCOCn1nnc2c(C(N)=O)ncn2c1=O` [PX-021], the GI50 in assay [1] (Colon HCT116 (MMR mutated)) was 39.8 µM and 36.6 µM and 40.1 µM; in assay [1] (setting [10]), 33.6 µM; in [2] (setting [11]) it was 47.1 µM; in assay [2] (setting [12]), 56.8 µM; in [3] (setting [13]), 48.6 µM; in assay [3] (setting [14]), 65.4 µM. For the same compound, the GI50 in assay [4] (Colon HT29 (MMR proficient)) turned out to be 55.8 µM; in assay [4] (setting [15]) it was 58.5 µM; in assay [5] (setting [16]), 53.7 µM; in assay [6], 30.3 µM; in assay [7], 43.3 µM; in assay [8], 22.1 µM.
For the compound `COCn1nnc2c(C(N)=O)ncn2c1=O` [PX-020], the GI50 in assay [1] (Colon HCT116 (MMR mutated)) is 47.4 µM and 52.4 µM and 56.1 µM and 29.5 µM; in assay [1] (setting [10]), 57.4 µM; in [2] (setting [11]), 56.1 µM; in assay [2] (setting [12]), 55.1 µM; in assay [3] (setting [13]), 61.6 µM; in [3] (setting [14]), 51.5 µM and 74.1 µM. In addition, the GI50 in assay [4] (Colon HT29 (MMR proficient)) stood at 49.8 µM; in [4] (setting [15]) it was 59.4 µM; in [5] (setting [16]), 55.4 µM; in assay [6], 33.4 µM; in [7], 38.6 µM; in assay [8], 30 µM.
Turning to `C[C@H](c1ccccc1)n1nnc2c(C(N)=O)ncn2c1=O` [BB-001, (R)-3-(-1-Phenylethyl)-8-carbamoylimidazotetrazin-4-one], the GI50 in assay [1] (setting [17]) was 194 µM; in assay [1] (setting [18]), 151 µM; in [9] (setting [19]), 63.7 µM; in [3] (setting [20]), 174 µM; in assay [5] (setting [21]), 80.6 µM; in [7] it was 22.2 µM. In addition, in assay [8], the GI50 stood at 8.5 µM.
As for `CCOC(=O)Cn1nnc2c(C(N)=O)ncn2c1=O` [PX-016], the GI50 in assay [1] (setting [17]) was 66 µM; in [1] (setting [18]) it was 65.2 µM; in assay [2] (setting [22]), 92.8 µM; in assay [2] (Melanoma SKMEL-28 (MMR proficient), 7-day MTT, single determinations), 91.3 µM; in [9] (setting [19]), 57.5 µM; in assay [9] (Glioma U373VR (MGMT low, TMZ resistant), 7-day MTT, single determinations), 71.1 µM. The GI50 in [3] (setting [20]) came to 109 µM; in assay [3] (setting [23]), 197 µM; in assay [5] (setting [21]), 61.1 µM.
Turning to `C[S+]([O-])Cn1nnc2c(C(N)=O)ncn2c1=O` (stereo not shown) [UU-003, 3-Methanesulfinylmethyl-4-oxo-3,4-dihydro-imidazo[5,1-d][1,2,3,5]tetrazine-8-carboxylic acid amide], the GI50 in assay [1] (Colon HCT116 (MMR mutated)) is 5.3 µM and 5 µM; in assay [1] (setting [10]) it was 6.7 µM; in [3] (setting [13]) it was 56.8 µM; in [3] (setting [14]), 55.2 µM and 52.1 µM; in assay [5] (Colon DLD1), 9.3 µM; in assay [5] (setting [16]) it was 8.2 µM.
Consider `C#CCn1nnc2c(C(N)=O)ncn2c1=O` [EE-001, 3-Propargyl-8-carbamoylimidazotetrazin-4-one], for which the GI50 in assay [1] (setting [18]) stood at 59.9 µM; in assay [2] (setting [22]), 48.5 µM; in [9] (setting [19]), 40.3 µM; in assay [3] (setting [20]) it was 56.1 µM; in assay [3] (setting [23]), 66.6 µM; in assay [4] (Homo sapiens, HT-29, 168 h, Colon HT29 (MMR proficient), 7-day MTT, single determinations), 21.1 µM. Also, the GI50 in [5] (setting [21]) was 29.9 µM; in assay [7] it was 7 µM; in assay [8], 7.8 µM.
Turning to `NC(=O)c1ncn2c(=O)n(CCl)nnc12` [PX-030], the concentration for 50% growth inhibition (GI50) was 22.3 µM in assay [1] (setting [10]); 28.9 µM and 34.5 µM in assay [9] (Glioma U373VR (MGMT low) (TMZ resistant)); 50.9 µM in assay [3] (setting [13]); 67.2 µM in assay [3] (setting [14]); 38.9 µM in [7]; 31.5 µM in [8].
